{"source": "patent US11596639B2", "about": "“Substituted indole Mcl-1 inhibitors” (Vanderbilt University, priority 2016, dated 2023)", "key": {"[1]": {"system": "H929 human cancer cell lines", "test": "Cellular viability / proliferation (Cell TiterGlo, 72 h)", "format": "cell-based", "outline": "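Top dose 50 μM, serially diluted 2-fold, applied one day after seeding (1,000 cells/well, 10% FBS), DMSO below 1%.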"}, "[2]": {"molecular_target": "Mcl-1 (Homo sapiens (Human), UniProt Q07820)", "sequence (Q07820 172-327)": "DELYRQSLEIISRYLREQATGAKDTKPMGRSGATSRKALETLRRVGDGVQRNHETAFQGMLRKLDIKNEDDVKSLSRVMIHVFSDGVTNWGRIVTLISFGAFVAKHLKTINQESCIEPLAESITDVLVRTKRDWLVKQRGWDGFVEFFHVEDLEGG", "test": "Fluorescence polarization anisotropy (FPA) competition assay, FITC-Bak or FITC-Bim BH3 peptide", "format": "binding", "conditions": "read-out: Ki for Inhibition of Mcl-1 by FPA assay"}, "[3]": {"conditions": "Homo sapiens, NCI-H929, 72 h, read-out: GI50 on cellular proliferation of H929 human cancer cell lines, H929 cells, 72 h, Cell TiterGlo, 10% FBS"}, "[4]": {"conditions": "H929 cells, 72 h, Cell TiterGlo, 10% FBS, read-out: GI50 on cellular proliferation of H929 human cancer cell lines"}}, "note": "Where two headings read alike, the source gives them in different places.", "data": [{"molecule": "Cc1cc(OCCCc2c3n(c4c(-c5c(C)nn(C)c5C)c(Cl)ccc24)CCCN(c2cc(C(=O)O)c4cn[nH]c4c2)C3=O)cc(C)c1Cl", "note": "[Example 44, 6-[8-chloro-11-[3-(4-chloro-3,5-dimethyl-phenoxy)propyl]-1-oxo-7-(1,3,5-trimethylpyrazol-4-yl)-4,5-dihydro-3H-[1,4]diazepino[1,2-a]indol-2-yl]-1H-indazole-4-carboxylic acid]", "values": [{"measurement": "GI50", "setting": "[1]; [3]", "result": 14000, "unit": "nM"}, {"measurement": "Ki", "setting": "[2]", "result": "< 1", "unit": "nM"}]}, {"molecule": "COCCOc1cc(N2C[C@@H](C)n3c(c(CCCOc4cc(C)c(Cl)c(C)c4)c4ccc(Cl)c(-c5c(C)nn(C)c5C)c43)C2=O)c2c(c1)cc(C(=O)O)n2C", "note": "[Example 461, (R)-7-(7-Chloro-10-(3-(4-chloro-3,5-dimethylphenoxy)propyl)-4-methyl-1-oxo-6-(1,3,5-trimethyl-1H-pyrazol-4-yl)-3,4-dihydropyrazino[1,2-a]indol-2(1H)-yl)-5-(2-methoxyethoxy)-1-methyl-1H-indole-2-carboxylic acid]", "values": [{"measurement": "GI50", "setting": "[1]; [3]", "result": "< 200", "unit": "nM"}, {"measurement": "Ki", "setting": "[2]", "result": "< 1", "unit": "nM"}]}, {"molecule": "COc1cc(C(=O)O)cc(N2CCCn3c(c(CCCOc4cc(C)c(Cl)c(C)c4)c4ccc(Cl)c(-c5c(C)nn(C)c5C)c43)C2=O)c1OCCO", "note": "[Example 62, 3-[8-chloro-11-[3-(4-chloro-3,5-dimethyl-phenoxy)propyl]-1-oxo-7-(1,3,5-trimethylpyrazol-4-yl)-4,5-dihydro-3H-[1,4]diazepino[1,2-a]indol-2-yl]-4-(2-hydroxyethoxy)-5-methoxy-benzoic acid]", "values": [{"measurement": "GI50", "setting": "[1]; [3]", "result": 11000, "unit": "nM"}, {"measurement": "Ki", "setting": "[2]", "result": "< 1", "unit": "nM"}]}, {"molecule": "Cc1cc(OCCCc2c3n(c4c(-c5c(C)nn(C)c5C)c(Cl)ccc24)[C@H](C)CN(c2cccc4cc(C(=O)O)n(Cc5ncccn5)c24)C3=O)cc(C)c1Cl", "note": "[Example 329, (R)-7-(7-Chloro-10-(3-(4-chloro-3,5-dimethylphenoxy)propyl)-4-methyl-1-oxo-6-(1,3,5-trimethyl-1H-pyrazol-4-yl)-3,4-dihydropyrazino[1,2-a]indol-2(1H)-yl)-1-(pyrimidin-2-ylmethyl)-1H-indole-2-carboxylic acid]", "values": [{"measurement": "GI50", "setting": "[1]; [3]", "result": 1100, "unit": "nM"}, {"measurement": "Ki", "setting": "[2]", "result": "< 1", "unit": "nM"}]}, {"molecule": "Cc1cc(OCCCc2c3n(c4c(-c5c(C)nn(C)c5C)c(Cl)ccc24)[C@H](C)CN(c2cccc4cc(-c5nnco5)n(C)c24)C3=O)cc(C)c1Cl", "note": "[Example 341, (R)-7-Chloro-10-(3-(4-chloro-3,5-dimethylphenoxy)propyl)-4-methyl-2-(1-methyl-2-(1,3,4-oxadiazol-2-yl)-1H-indol-7-yl)-6-(1,3,5-trimethyl-1H-pyrazol-4-yl)-3,4-dihydropyrazino[1,2-a]indol-1(2H)-one]", "values": [{"measurement": "GI50", "setting": "[1]; [3]", "result": 920, "unit": "nM"}, {"measurement": "Ki", "setting": "[2]", "result": 4.2, "unit": "nM"}]}, {"molecule": "COCCOc1cc(N2C[C@@H](C)n3c(c(CCCOc4cc(C)c(Cl)c(C)c4)c4ccc(Cl)c(-c5c(C)nn(C)c5C)c43)C2=O)c2cc(C(=O)O)n(C)c2c1", "note": "[Example 328, (M, R)-4-(7-Chloro-10-(3-(4-chloro-3,5-dimethylphenoxy)propyl)-4-methyl-1-oxo-6-(1,3,5-trimethyl-1H-pyrazol-4-yl)-3,4-dihydropyrazino[1,2-a]indol-2(1H)-yl)-6-(2-methoxyethoxy)-1-methyl-1H-indole-2-carboxylic acid]", "values": [{"measurement": "GI50", "setting": "[1]; [4]", "result": 690, "unit": "nM"}, {"measurement": "Ki", "setting": "[2]", "result": "< 1", "unit": "nM"}]}, {"molecule": "Cc1cc(OCCCc2c3n(c4c(-c5c(C)nn(C)c5C)c(Cl)ccc24)CCCN(c2cc(C(=O)O)c4ncn(C)c4c2)C3=O)cc(C)c1Cl", "note": "[Example 7, 6-[8-chloro-11-[3-(4-chloro-3,5-dimethyl-phenoxy)propyl]-1-oxo-7-(1,3,5-trimethylpyrazol-4-yl)-4,5-dihydro-3H-[1,4]diazepino[1,2-a]indol-2-yl]-1-methyl-benzimidazole-4-carboxylic acid]", "values": [{"measurement": "GI50", "setting": "[1]; [3]", "result": 13000, "unit": "nM"}, {"measurement": "Ki", "setting": "[2]", "result": 2.2, "unit": "nM"}]}, {"molecule": "Cc1cc(OCCCc2c3n(c4c(-c5c(C)nn(C)c5C)c(Cl)ccc24)CCCN(c2cc(C(=O)O)c4cn(CCN5CCOCC5)nc4c2)C3=O)cc(C)c1Cl", "note": "[Example 12, 6-[8-Chloro-11-[3-(4-chloro-3,5-dimethyl-phenoxy)propyl]-1-oxo-7-(1,3,5-trimethylpyrazol-4-yl)-4,5-dihydro-3H-[1,4]diazepino[1,2-a]indol-2-yl]-2-(2-morpholinoethyl)indazole-4-carboxylic acid]", "values": [{"measurement": "GI50", "setting": "[1]; [3]", "result": 8300, "unit": "nM"}, {"measurement": "Ki", "setting": "[2]", "result": 1.2, "unit": "nM"}]}, {"molecule": "Cc1cc(OCCCc2c3n(c4c(-c5c(C)n[nH]c5C)c(Cl)ccc24)[C@H](C)CN(c2cn(C)c4c(C)cc(C(=O)O)cc24)C3=O)cc(C)c1Cl", "note": "[Example 160, (R)-3-(7-chloro-10-(3-(4-chloro-3,5-dimethylphenoxy)propyl)-6-(3,5-dimethyl-1H-pyrazol-4-yl)-4-methyl-1-oxo-3,4-dihydropyrazino[1,2-a]indol-2(1H)-yl)-1,7-dimethyl-1H-indole-5-carboxylic acid]", "values": [{"measurement": "GI50", "setting": "[1]; [3]", "result": 690, "unit": "nM"}, {"measurement": "Ki", "setting": "[2]", "result": 1.1, "unit": "nM"}]}, {"molecule": "Cc1cc(OCCCc2c3n(c4c(-c5c(C)nn(C)c5C)c(Cl)ccc24)[C@H](C)CN(c2cn(C)c4cc(F)c(C(=O)O)cc24)C3=O)cc(C)c1Cl", "note": "[Example 348, (P, R)-3-(7-Chloro-10-(3-(4-chloro-3,5-dimethylphenoxy)propyl)-4-methyl-1-oxo-6-(1,3,5-trimethyl-1H-pyrazol-4-yl)-3,4-dihydropyrazino[1,2-a]indol-2(1H)-yl)-6-fluoro-1-methyl-1H-indole-5-carboxylic acid]", "values": [{"measurement": "GI50", "setting": "[1]; [4]", "result": 1300, "unit": "nM"}, {"measurement": "Ki", "setting": "[2]", "result": 1.8, "unit": "nM"}]}, {"molecule": "Cc1ccnc(Cn2c(C(=O)O)cc3cc(C)cc(N4C[C@@H](C)n5c(c(CCCOc6cc(C)c(Cl)c(C)c6)c6ccc(Cl)c(-c7c(C)nn(C)c7C)c65)C4=O)c32)c1", "note": "[Example 456, (R)-7-(7-Chloro-10-(3-(4-chloro-3,5-dimethylphenoxy)propyl)-4-methyl-1-oxo-6-(1,3,5-trimethyl-1H-pyrazol-4-yl)-3,4-dihydropyrazino[1,2-a]indol-2(1H)-yl)-5-methyl-1-((4-methylpyridin-2-yl)methyl)-1H-indole-2-carboxylic acid]", "values": [{"measurement": "GI50", "setting": "[1]; [3]", "result": "< 200", "unit": "nM"}, {"measurement": "Ki", "setting": "[2]", "result": "< 1", "unit": "nM"}]}, {"molecule": "Cc1cc(OCCCc2c3n(c4c(-c5c(C)nn(C)c5C)c(Cl)ccc24)[C@H](C)CN(c2cn(C)c4ccc(S(=O)(=O)N5CCNCC5)cc24)C3=O)cc(C)c1Cl", "note": "[Example 265, (R)-7-chloro-10-(3-(4-chloro-3,5-dimethylphenoxy)propyl)-4-methyl-2-(1-methyl-5-(piperazin-1-ylsulfonyl)-1H-indol-3-yl)-6-(1,3,5-trimethyl-1H-pyrazol-4-yl)-3,4-dihydropyrazino[1,2-a]indol-1(2H)-one]", "values": [{"measurement": "GI50", "setting": "[1]; [3]", "result": 1500, "unit": "nM"}, {"measurement": "Ki", "setting": "[2]", "result": 8.2, "unit": "nM"}]}, {"molecule": "Cc1cc(OCCCc2c3n(c4c(-c5c(C)nn(C)c5C)c(Cl)ccc24)[C@H](C)CN(c2cccc4nn(C)c(C(=O)O)c24)C3=O)cc(C)c1Cl", "note": "[Example 133, 4-[(4R)-7-chloro-10-[3-(4-chloro-3,5-dimethyl-phenoxy)propyl]-4-methyl-1-oxo-6-(1,3,5-trimethylpyrazol-4-yl)-3,4-dihydropyrazino[1,2-a]indol-2-yl]-2-methyl-indazole-3-carboxylic acid]", "values": [{"measurement": "GI50", "setting": "[1]; read-out: GI50 on cellular proliferation of H929 human cancer cell lines, H929 cells, 72 h, Cell TiterGlo, 10% FBS", "result": 1400, "unit": "nM"}, {"measurement": "Ki", "setting": "[2]", "result": "< 1", "unit": "nM"}]}, {"molecule": "Cc1cc(OCCCc2c3n(c4c(-c5c(C)nn(C)c5C)c(Cl)ccc24)[C@H](C)CN(c2ccc(F)c4c(C(=O)O)c[nH]c24)C3=O)cc(C)c1Cl", "note": "[Example 438, (R)-7-(7-Chloro-10-(3-(4-chloro-3,5-dimethylphenoxy)propyl)-4-methyl-1-oxo-6-(1,3,5-trimethyl-1H-pyrazol-4-yl)-3,4-dihydropyrazino[1,2-a]indol-2(1H)-yl)-4-fluoro-1H-indole-3-carboxylic acid]", "values": [{"measurement": "GI50", "setting": "[1]; [3]", "result": 2800, "unit": "nM"}, {"measurement": "Ki", "setting": "[2]", "result": 1.1, "unit": "nM"}]}]}
